Experimental data: US20140012013A1, “METHOD FOR PRODUCING PYRAZOLE CARBOXYLIC ACID DERIVATIVE” (SHIONOGI & CO., LTD., priority 2011, published 2014)

Assay: log k′ (degree of lipophilic character) from HPLC retention time under gradient condition
Format: physicochemical
Details: XTerra MS C18 5 μm, 2.1×100 mm column; acetonitrile/pH6.8 buffer 5:95~95:5/20 min; flow 0.25 mL/min
Experimental: log k′ is a value which means degree of the lipophilic character, and is calculated by the following formula.
tR: retention time of compound under gradient condition t0: retention time of standard material not retained in column
XTerra MS C18 5 μm, 2.1×100 mm column (made by Waters) was used for measurement. The elution was a straight line inclination of acetonitrile/pH6.8 buffer (5:95˜95:5/20 min) at flow velocity 0.25 mL/min.

COC(=O)NC12CC3CC(C1)C(NC(=O)c1cnn(/C=C/C(C)(C)NC(C)=O)c1OCC(C)C)C(C3)C2 (centres unmarked) [Compound (XIII-1-2)]
log k′: 0.886

CC(=O)NCC12CC3CC(C1)C(NC(=O)c1cnn(/C=C/C(C)(C)NC(C)=O)c1OCC(C)C)C(C3)C2 (centres unmarked) [Compound (XIII-1-3)]
log k′: 0.838
